Test results from patent US6100280A, “Narcotic antagonist” (Pola Chemical Industries, Inc., priority 1995, dated 2000).

The compounds below were run against T1, (cocaine derivative [^3 H]WIN35,428 binding, striatum) (Rattus norvegicus, UniProt P23977) (assay: In vitro binding inhibition assay against a cocaine derivative ([^3 H]WIN35,428), striatum crude membrane). Settings: [^3 H]WIN35,428 0.5 nM, 2 hours on ice (0-4° C.), pH 7.4, Hill plotting, read-out: 50% Inhibition concentration.
T1 construct: from tissue; host or cells: striatum of male Wistar rats, crude membranes
Parameters: species or system male Wistar rats
Experimental: (§1) Male Wistar rats were decapitated. From each rat, striatum was immediately removed, and its wet weight was measured. The tissue of striatum was homogenized using a polytron together with a 10-fold amount of 50 mM Tris-HCl buffer (pH 7.4) while being cooled on ice. The homogenate was centrifugally separated (38,700 G, 20 minutes, 4° C.), and the resulting pellet was suspended in a mixture of a 40-fold amount (based on the original tissue weight) of 50 mM Tris-HCl and 100 mM NaCl buffer (pH 7.4).
(§2) The contents were allowed to react for 2 hours on ice (0-4° C.). Reaction was terminated by passing the contents through a glass filter (GF/B, product of Whatman) which had been immersed in 0.1% BSA solution for at least 40 minutes in advance while aspiration was carried out using a cell harvester, followed by washing three times with 5 ml of 50 mM Tris HCl buffer (pH 7.4). The filter and 10 ml of aquazol 2 (product of NEN) were placed in a vial and allowed to stand overnight. Radioactivity was measured using a liquid scintillation counter. […] Specific binding amounts were determined by subtracting the nonspecific binding amounts from the total binding amounts. Fifty(50)% inhibition concentrations were calculated using Hill plotting.

T1 sequence (P23977 whole entry): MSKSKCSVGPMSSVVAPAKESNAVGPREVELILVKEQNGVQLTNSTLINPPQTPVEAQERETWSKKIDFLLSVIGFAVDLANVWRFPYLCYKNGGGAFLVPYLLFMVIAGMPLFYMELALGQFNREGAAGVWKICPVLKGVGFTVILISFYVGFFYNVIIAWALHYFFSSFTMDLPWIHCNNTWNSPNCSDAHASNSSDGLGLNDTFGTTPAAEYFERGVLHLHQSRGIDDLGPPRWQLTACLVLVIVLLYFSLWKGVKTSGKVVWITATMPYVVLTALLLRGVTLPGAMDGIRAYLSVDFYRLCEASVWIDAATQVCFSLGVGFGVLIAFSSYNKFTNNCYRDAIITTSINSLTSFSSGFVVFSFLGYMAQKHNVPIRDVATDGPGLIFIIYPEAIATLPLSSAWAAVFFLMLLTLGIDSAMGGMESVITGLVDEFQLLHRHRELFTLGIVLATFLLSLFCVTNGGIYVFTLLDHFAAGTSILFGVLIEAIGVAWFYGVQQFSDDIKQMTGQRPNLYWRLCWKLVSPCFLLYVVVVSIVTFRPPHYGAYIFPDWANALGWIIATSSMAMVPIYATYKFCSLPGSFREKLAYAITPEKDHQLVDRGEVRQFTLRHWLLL

| Structure (SMILES) | IC50 [µM] |
| --- | --- |
| OC(CNc1ccccc1)CN1CCN(CCCC(c2ccc(F)cc2)c2ccc(F)cc2)CC1 (single isomer, unassigned) [Compound 15, (--)-1-[4,4-bis(4-fluorophenyl)butyl]-4-(2-hydroxy-3-phenylaminopropyl)-piperazine.2HCl] | 0.0376 |
| OC(CNc1ccccc1)CN1CCN(CCCC(c2ccc(F)cc2)c2ccc(F)cc2)CC1 (single isomer, unassigned; (+)) [Compound 16, (+)-1-[4,4-bis(4-fluorophenyl)butyl)-4-(2-hydroxy-3-phenylaminopropyl)-piperazine.2HCl] | 0.0526 |
| OC(CNc1ccccc1)CN1CCN(CCCC(c2ccc(F)cc2)c2ccc(F)cc2)CC1 (stereo not shown) [Compound 1, 1-[4,4-bis(4-fluorophenyl)-butyl]-4-(2-hydroxy-3-phenylaminopropyl)piperazine.2HCl] | 0.0448 |
| OC(CNc1ccccc1)CN1CCN(C(c2ccc(F)cc2)c2ccc(F)cc2)CC1 (stereo not shown) [Compound 2, 1-[bis(4-fluorophenyl)-methyl]-4-[2-hydroxy-3-phenylaminopropyl)-piperazine.2HCl] | 0.0516 |
| OC(CNCc1ccccc1)CN1CCN(CCCC(c2ccc(F)cc2)c2ccc(F)cc2)CC1 (stereo not shown) [Compound 3, 1-[4,4-bis(4-fluorophenyl)-butyl]-4-(2-hydroxy-3-benzylaminopropyl)-piperazine.2HCl] | 0.0317 |
| CC(=O)N(CC(O)CN1CCN(CCCC(c2ccc(F)cc2)c2ccc(F)cc2)CC1)c1ccccc1 (stereo not shown) [Compound 4] | 0.0495 |
| CN(CC(O)CN1CCN(CCCC(c2ccc(F)cc2)c2ccc(F)cc2)CC1)c1ccccc1 (stereo not shown) [Compound 6, 1-[4,4-bis(4-fluorophenyl)-butyl]-4-[2-hydroxy-3-(N-methyl-N-phenylamino)-propyl]piperazine.2C4H4O4] | 0.0349 |
| CC(=O)OC(CNc1ccccc1)CN1CCN(CCCC(c2ccc(F)cc2)c2ccc(F)cc2)CC1 (stereo not drawn) [Compound 7, l-(2-acetoxy-3-phenylamino-propyl)-4-[4,4-bis(4-fluorophenyl)butyl]piperazine.2C4H4O4] | 0.0412 |
| COC(CNc1ccccc1)CN1CCN(CCCC(c2ccc(F)cc2)c2ccc(F)cc2)CC1 (stereo not shown) [Compound 8, 1-[4,4-bis(4-fluorophenyl)-butyl]-4-(2-methoxy-3-phenylaminopropyl)piperazine.2HCl] | 0.0237 |
| OC(CNc1ccc(F)cc1)CN1CCN(CCCC(c2ccc(F)cc2)c2ccc(F)cc2)CC1 (stereo not shown) [Compound 9, 1-[4,4-bis(4-fluorophenyl)-butyl]-4-[3-(4-fluorophenylamino)-2-hydroxypropyl]-piperazine.2HCl] | 0.0468 |
| COc1cc(NCC(O)CN2CCN(CCCC(c3ccc(F)cc3)c3ccc(F)cc3)CC2)cc(OC)c1OC (stereo not shown) [Compound 11, 1-[4,4-bis(4-fluorophenyl)-butyl]-4-[2-hydroxy-3-(3,4,5-trimethoxyphenylamino)-propyl]piperazine.2C4H4O4] | 0.197 |
| COc1ccc(NCC(O)CN2CCN(CCCC(c3ccc(F)cc3)c3ccc(F)cc3)CC2)cc1 (stereo not shown) [Compound 13, 1-[4,4-bis(4-fluorophenyl)-butyl]-4-[2-hydroxy-3-(4-methoxyphenylamino)propyl]-piperazine.2HCl] | 0.105 |
| OC(CNc1ccncc1)CN1CCN(CCCC(c2ccc(F)cc2)c2ccc(F)cc2)CC1 (stereo not shown) [Compound 17, 1-[4,4-bis(4-fluorophenyl)-butyl)-4-[2-hydroxy-3-(4-pyridylamino)propyl]-piperazine.2C4H4O4] | 0.045 |
| OC(CNc1ccccc1)CN1CCN(CCC(c2ccc(F)cc2)c2ccc(F)cc2)CC1 (stereo not shown) [Compound 18, 1-[3,3-bis(4-fluorophenyl)-propyl]-4-[2-hydroxy-3-phenylaminopropyl)piperazine] | 0.015 |
| OC(CNc1ccccc1)CN1CCN(CC(c2ccccc2)c2ccccc2)CC1 (stereo not shown) [Compound 19, 1-[2,2-diphenylethyl)-4-(2-hydroxy-3-phenylamino-propyl)piperazine.2HCl] | 0.0722 |
| O=[N+]([O-])c1ccc(NCC(O)CN2CCN(CCCC(c3ccc(F)cc3)c3ccc(F)cc3)CC2)cc1 (stereo not shown) [Compound 20, 1-[4,4-bis(4-fluorophenyl)butyl]-4-[2-hydroxy-3-(4-nitrophenylamino)propyl]-piperazine.2HCl] | 0.0558 |
| OC(CNc1ccccc1)CN1CCN(CCCCC(c2ccc(F)cc2)c2ccc(F)cc2)CC1 (stereo not shown) [Compound 21, 1-[5,5-bis(4-flurophenyl)-pentyl]-4-(2-hydroxy-3-phenylaminopropyl)piperazine.2HCl] | 0.0412 |
| CC(C)(C)c1cc(NCC(O)CN2CCN(CCCC(c3ccc(F)cc3)c3ccc(F)cc3)CC2)cc(C(C)(C)C)c1O (stereo not shown) [Compound 22, 1-[4,4-bis(4-flurophenyl)-butyl]-4-[3-(3,5-di-tert-butyl-4-hydroxyphenylamino)-2-hydroxypropyl]piperazine..3C4H4O4] | 0.306 |
| Nc1ccc(NCC(O)CN2CCN(CCCC(c3ccc(F)cc3)c3ccc(F)cc3)CC2)cc1 (stereo not shown) [Compound 23, 1-[3-(4-aminophenylamino)-2-hydroxypropyl]-4-[4,4-bis(4-fluorophenyl)butyl]-piperazine.3C4H4O4] | 0.534 |
| Oc1ccc(NCC(O)CN2CCN(CCCC(c3ccc(F)cc3)c3ccc(F)cc3)CC2)cc1 (stereo not shown) [Compound 25, 1-[4,4-bis(4-flurophenyl)-butyl]-4-[2-hydroxy-3-(4-hydroxyphenylamino)propyl]-piperazine.2C4H4O4] | 0.0237 |
| COC(=O)[C@H]1[C@@H](c2ccccc2)C[C@@H]2CC[C@H]1N2C [WIN35,065-2, reference compound] | 0.118 |

What follows are compounds tested against T2, narcotic receptors (cocaine derivative [^3 H]WIN35,428 binding, striatum) (Rattus norvegicus, UniProt P23977) (assay: Ex vivo binding inhibition assay ([^3 H]WIN35,428, striatum after intraperitoneal administration)). Settings: 30 mg/kg intraperitoneally, 30 minutes after administration, [^3 H]WIN35,428 0.5 nM; control (saline) 0%.
T2 construct: from tissue; host or cells: striatum of male Wistar rats, crude membranes
Format: in vivo, male Wistar rats
Experimental: Ex vivo binding inhibition assay
as §1, with “To each male” for “Male”, “Wistar rat, 30 mg/kg of compound 15 was intraperitoneally administered. Thirty minutes after administration,” for “Wistar”, “(20,000” for “(38,700”, “20-fold” for “40-fold”
as §2, with “Control accounts for the sole use of a saline solution administered to rats intraperitoneally. […]” for “Fifty(50)% inhibition concentrations were calculated using Hill plotting.”

T2 sequence (P23977 whole entry): as above

| Structure (SMILES) | binding inhibitory ratio [%] |
| --- | --- |
| OC(CNc1ccccc1)CN1CCN(CCCC(c2ccc(F)cc2)c2ccc(F)cc2)CC1 (single isomer, unassigned) [Compound 15, (--)-1-[4,4-bis(4-fluorophenyl)butyl]-4-(2-hydroxy-3-phenylaminopropyl)-piperazine.2HCl] | 86.1 |
